{
  "source": "patent US10159736B2",
  "about": "“Plant virus particles for delivery of photosensitive agents” (Case Western Reserve University, priority 2016, dated 2018)",
  "key": {"B16F10": {"test_system": "B16F10", "conditions": "cited from earlier work"}, "RAW 264.7 macrophages": {"test_system": "RAW 264.7 macrophages", "experiment": "LIVE/DEAD cell viability assay of macrophages after photodynamic therapy", "type": "cell-based", "method": "Uptake of PS-CPMV* and its efficacy for PDT of RAW 264.7 murine macrophages was initially tested using a LIVE/DEAD cell viability assay in a 96-well plate. The macrophages were allowed 8 h to take up either PS-CPMV* at a concentration of 5.0 μM PS or CPMV, CPMV*, and PS controls normalized according to PS or CPMV concentration. After washing, PDT was initialized using a mirror setup where light from a projector was reflected on the cell plate for 30 min. Cells were incubated overnight, then stained with a combination of calcein-AM and ethidium homodimer-1 to detect live and dead cells, respectively (FIG. 4a).\nRAW 264.7 macrophages were seeded overnight in 96-well plates, with one plate used as a dark control, at a concentration of 10,000 cells/100 μL Dulbecco's modified Eagle's medium (DMEM, Gibco) supplemented with 10% (v/v) fetal bovine serum (FBS, Atlanta Biologicals) and 1% (v/v) penicillin-streptomycin (pen-strep, Life Technologies). Cells were then incubated for 8 h at 37° C. and 5% CO2 with triplicates of CPMV, CPMV*, PS-CPMV*, or PS corresponding to 5.0 μM PS or normalized for nanoparticle concentration accordingly. […] Cell viability was determined using a LIVE/DEAD assay for mammalian cells (Thermo Fisher) following manufacturer's procedures for cell staining and using a Zeiss Axio Observer Z1 motorized FL inverted microscope for imaging. […]"}, "[1]": {"experiment": "Storage in the fridge, visual examination", "type": "physicochemical", "conditions": "stored in the fridge over a period of a month"}, "B16F10 melanoma cells [2]": {"test_system": "B16F10 melanoma cells", "experiment": "LIVE/DEAD cell viability assay of melanoma cells", "type": "cell-based", "conditions": "5.0 μM, 8 hours, light 30 minutes", "source_text": "The MTT assay is based on a yellow tetrazolium dye that is reduced to purple formazan via NAD(P)H-dependent oxidoreductase enzymes. This reduction is highly dependent on cellular metabolism in the mitochondria and is not high in cells with low cellular metabolic activity. Liu et al., Journal of neurochemistry, 69 (2), 581-93 (1997). Because photosensitizers are known to impact the functionality of the mitochondria, the MTT assay may be compromised as a result of impaired mitochondrial activity. Therefore, LIVE/DEAD cell viability assays were performed to further confirm therapeutic efficacy and cell killing. Cells were incubated with 5.0 μM of free Zn-EpPor or Zn-EpPorTMV, or corresponding controls, for 8 hours, washed, and illuminated for 30 minutes. This drug concentration was based on the MTT assay; it is over four times the IC50 value in B16F10 melanoma and should give maximal cell killing. The LIVE/DEAD assay was applied the next day, imaged, and images were analyzed using ImageJ to determine percent cell viability (FIG. 9B). […] On the contrary, cells exposed to both Zn-EpPor or Zn-EpPorTMV and light had 100% cell killing.\nThe staining procedure was as per manufacturer's recommendation."}, "B16F10 melanoma cells [3]": {"test_system": "B16F10 melanoma cells", "experiment": "Flow cytometry of cell uptake (Zn-EpPor fluorescence)", "type": "cell-based", "conditions": "10^6 particles/cell or corresponding amount of free drug, 8 hours", "method": "Cell binding and uptake of the PDT delivery system was measured using both flow cytometry and confocal microscopy. […] Cell uptake was measured as a function of Zn-EpPor fluorescence (FIG. 8A). […] These studies were complemented with confocal microscopy to determine the intracellular fate of Zn-EpPor delivered by TMV. Following an 8-hour incubation of B16F10 cells with Zn-EpPorTMV particles, cells were fixed and stained with wheat germ agglutinin. Confocal fluorescence microscopy confirmed that Zn-EpPor is both taken up by the cells, and also dispersed throughout the cytoplasm (FIG. 8B), allowing it to exert their mechanism of action. The intracellular distribution of the Zn-EpPor drug was consistent with intracellular release of the cargo. We hypothesize that TMV is taken up and trafficked to the endolysosome, as previously reported. Wen et al., Bioconjugate chemistry, 26 (1), 51-62 (2015). […]\nConfluent B16F10 cells were removed using Hank's based cell dissociation buffer (ThermoFisher) and added to 96-well v-bottom plates (200 μL/well, 2.5×10^6 cells/mL). […] Cells were washed 2 times, then resuspended in FACS buffer and analyzed on a BD FACSAria flow cytometer. Live cells were gated and 10,000 events were recorded; all experiments were carried out in triplicate. Data were analyzed on FlowJo 8.6.3 software."}, "B16F10 melanoma cells [4]": {"test_system": "B16F10 melanoma cells", "experiment": "MTT cell viability assay after white light illumination (Example II)", "quoted_text": "Untreated cells and drug-free TMV carrier were used as controls. The TMV concentration was normalized to the drug-loaded concentration and corresponded to the highest amount of TMV used to determine the IC50 curves (FIG. 9A). Drug candidates and controls were incubated with B16F10 cells for 8 hours, washed, and then exposed to white light from a Vivitek D950HD projector under a rectangle (10.5 cm×11 cm) for 30 minutes. Following illumination, cells were returned to the incubator for 48 hours. Cell viability was assessed using an MTT cell viability assay and analyzed using GraphPad Prism.\nCell viability was assayed using MTT and LIVE/DEAD assays. Confluent cells were removed using 0.05% (w/v) trypsin-EDTA, added to 96-well plates (100 μL/well, 2×10^4 cells/mL), and grown overnight. Native TMV, drug loaded Zn-EpPorTMV, vs. free Zn-EpPor were added to cells using 0.025, 0.05, 0.1, 0.25, 0.5, 1.0, and 5.0 μM Zn-EpPor; cells were incubated for 8 hours at 37° C. and 5% CO2. Assays were done in triplicates and repeated at least twice. […] Cell viability was assessed using an MTT cell proliferation assay (ATCC); the procedure was as per manufacturer's recommendation. Alternatively, cell viability and cytotoxicity was determined using the LIVE/DEAD Viability/Cytotoxicity Kit for mammalian cells (ThermoFisher). […] Images were analyzed for percentage cell viability using ImageJ 1.47d."}},
  "note": "pIC50: −log10 of the molar value.",
  "data": [
    {"compound": "porfimir sodium [Photofrin]", "values": [
      {"measurement": "efficacy in pigmented melanoma", "setting": "B16F10; melanin-heavy cells, such as the B16F10 cell line", "value": "ineffective"}
    ]},
    {"compound": "C#Cc1ccc(C2=C3C=CC(=N3)C(c3cc[n+](C)cc3)=c3ccc4[n]3[Zn][n]3c2ccc3C(c2cc[n+](C)cc2)=C2C=CC(=N2)C=4c2cc[n+](C)cc2)cc1.[I-].[I-].[I-]", "note": "[Zn-EpPor, 5-(4-ethynylphenyl)-10,15,20-tris-(4-methylpyridin-4-ium-1-yl)porphyrin-zinc(II) triiodide]", "values": [
      {"measurement": "elimination of macrophages after PDT", "setting": "RAW 264.7 macrophages; 5.0 μM PS, 8 h uptake, light 30 min, staining next day", "value": "completely eliminating the macrophages"},
      {"measurement": "cytotoxicity in dark controls", "setting": "RAW 264.7 macrophages; absence of light therapy", "value": "no cytotoxicity"},
      {"measurement": "dispersion on storage", "setting": "[1]", "value": "aggregation and sedimentation"},
      {"measurement": "cell killing", "setting": "B16F10 melanoma cells [2]", "value": 100, "unit": "%"},
      {"measurement": "mean fluorescence intensity (MFI)", "setting": "B16F10 melanoma cells [3]", "value": 956},
      {"measurement": "pIC50", "setting": "B16F10 melanoma cells [4]; 8 hours incubation, white light 30 minutes, MTT after 48 hours, concentration as Zn-EpPor", "value": 6.27},
      {"measurement": "cell killing in the dark", "setting": "B16F10 melanoma cells [4]; no illumination", "value": "no cell killing was observed"}
    ]},
    {"compound": "C=Cc1c(C)c2cc3nc(c(CC(=O)N[C@@H](CC(=O)O)C(=O)O)c4[nH]c(cc5nc(cc1[nH]2)C(C)=C5CC)c(C)c4C(=O)O)[C@@H](CCC(=O)O)[C@@H]3C", "note": "[Talaporfin, talaporfin]", "values": [
      {"measurement": "pIC50", "setting": "B16F10; B16F10, previously reported", "value": 5.07}
    ]}
  ]
}
